Measurements: PMC6792352, “Limited Chemical Structural Diversity Found to Modulate Thyroid Hormone Receptor in the Tox21 Chemical Library” (Environmental Health Perspectives, 2019)
Counter-ions that a name gives are not always drawn.

Experiment: in vitro
Settings: rat, gh3-tre-luc cells, AC50 (uM) modified / 1000

Row | SMILES | CC50 at 24 h
1 | CCCCOC(=O)C(C)OC(=O)CCC (stereo not drawn) [1-Butoxy-1-oxopropan-2-yl butanoate] | > 90 µM
2 | C=CCSSSCC=C [Diallyl trisulfide] | > 50 µM
3 | CCCCNC(=O)NS(=O)(=O)c1ccc(C)cc1 [Tolbutamide] | > 90 µM
4 | CN(C)[C@@H]1C(=O)C(C(N)=O)=C(O)[C@@]2(O)C(=O)C3=C(O)c4c(O)cccc4[C@@](C)(O)[C@H]3[C@H](O)[C@@H]12 [Oxytetracycline] | > 90 µM
5 | N#Cc1cscn1 [4-Thiazolecarbonitrile] | > 90 µM
6 | C#CC(C)(O)CC(C)C (stereo not drawn) [3,5-Dimethyl-1-hexyn-3-ol] | > 90 µM
7 | Cn1c(=O)c2c(ncn2CC(O)CO)n(C)c1=O (stereo not drawn) [Dyphylline] | > 20 µM
8 | Oc1ccc(O)c2c(O)cccc12 [1,4,5-Trihydroxynaphthalene] | > 90 µM
9 | CCCCCCCCCCC(=O)O [Undecanoic acid] | > 90 µM
10 | Cc1cc(C)c(N)cc1C [2,4,5-Trimethylaniline] | > 90 µM
11 | CC(C)NCC(O)COc1ccc(COCCOC(C)C)cc1 (stereo not drawn) [Bisoprolol fumarate] | > 50 µM
12 | OCCCCCCCl [6-Chlorohexan-1-ol] | > 100 µM
13 | CCCCCCCCCOC(=O)c1ccc(O)cc1 [Nonylparaben] | 21.8 µM
14 | CCOC(=O)c1ccc(OCCN2C[C@H](O)[C@@H](O)[C@H](O)[C@H]2CO)cc1 [Emiglitate] | > 50 µM
15 | CCC(C)(C)C(=O)OC1=C(c2ccc(Cl)cc2Cl)C(=O)OC12CCCCC2 [Spirodiclofen] | > 90 µM
16 | CC(C)C1CCC(Cc2ccc(Cl)cc2)C1(O)Cn1cncn1 (stereo not drawn) [Ipconazole] | 41.7 µM
17 | CCC(=O)C=CC1C(C)=CCCC1(C)C (stereo not drawn) [1-(2,6,6-Trimethyl-2-cyclohexen-1-yl)-1-penten-3-one] | > 90 µM
18 | NC(=O)Cc1cccc(C(=O)c2ccccc2)c1N [Nepafenac] | > 50 µM
19 | CCOC(=O)c1ccccc1C(=C1C=C(Br)C(=O)C(Br)=C1)c1cc(Br)c(O)c(Br)c1 [Tetrabromophenolphthalein ethyl ester] | 42.7 µM
20 | CCN(CC)CCOC(=O)C(O)(c1ccccc1)c1ccccc1 [Benactyzine] | > 50 µM
21 | CC(C)(C)c1cc(CCC(=O)OCC(COC(=O)CCc2cc(C(C)(C)C)c(O)c(C(C)(C)C)c2)(COC(=O)CCc2cc(C(C)(C)C)c(O)c(C(C)(C)C)c2)COC(=O)CCc2cc(C(C)(C)C)c(O)c(C(C)(C)C)c2)cc(C(C)(C)C)c1O [Irganox 1010] | > 40 µM

Row | SMILES | CC50 at 24 h
22 | Clc1cc(Cl)c(OCC#CI)cc1Cl [Haloprogin] | 11.9 µM
23 | COc1cc(C(=O)NC2CCCNC2)cc(OC)c1OC (stereo not drawn) [Troxipide] | > 50 µM
24 | CC(C)COC(=O)CCCCC(=O)OCC(C)C [Diisobutyl adipate] | > 90 µM
25 | NC(=O)c1ccncc1 [Isonicotinamide] | > 100 µM
26 | CCCCCCCCCCCCCCCCCC#N [Octadecanenitrile] | > 90 µM
27 | COc1c(C)c2c(c(O)c1C/C=C(\C)CCC(=O)O)C(=O)OC2 [Mycophenolic acid] | 1.55 µM
28 | O=[N+]([O-])NC1=NCCN1Cc1ccc(Cl)nc1 [Imidacloprid] | > 90 µM
29 | Cc1cc2c(C(C)C)c(O)c(O)c(C=O)c2c(O)c1-c1c(C)cc2c(C(C)C)c(O)c(O)c(C=O)c2c1O [Gossypol] | 8.84 µM
30 | Cc1ccc(Cl)cc1Cl [2,4-Dichlorotoluene] | > 90 µM
31 | COc1cc(C(=S)N2CCOCC2)ccc1O [Vanitiolide] | > 50 µM
32 | CN1CCN(C2=Nc3cc(F)ccc3Cc3ccccc32)CC1 [Fluperlapine] | 11.9 µM
33 | NC(=O)C(Cl)(Cl)Cl [2,2,2-Trichloroacetamide] | > 90 µM
34 | C=C[C@H]1C[N@@]2CC[C@H]1C[C@@H]2[C@@H](O)c1ccnc2ccccc12 [Cinchonine] | > 50 µM
35 | N=C(N)c1ccccc1 [Benzenecarboximidamide, monohydrochloride] | > 90 µM
36 | CC(C)c1ccccc1C(C)C [Diisopropylbenzene] | 88.9 µM
37 | Fc1ccccc1 [Fluorobenzene] | > 90 µM
38 | CC(=O)OC(C(=O)c1ccccc1)c1ccccc1 (stereo not drawn) [Benzoin acetate] | > 90 µM
39 | CCCOC(C(=O)OC1CCN(C)CC1)(c1ccccc1)c1ccccc1 [Propiverine hydrochloride] | 14.7 µM
40 | Cl[C@H]1[C@H](Cl)[C@@H](Cl)[C@@H](Cl)[C@H](Cl)[C@H]1Cl [1,2,3,4,5,6-Hexachlorocyclohexane] | 45.8 µM
41 | CC(=O)OCc1ccccc1 [Benzyl acetate] | > 90 µM
42 | CC(=O)OCC1=C(C(=O)O)N2C(=O)[C@@H](NC(=O)Cc3cccs3)[C@H]2SC1 [Cephalothin] | > 50 µM

Row | SMILES | CC50 at 24 h
43 | c1ccc2cnccc2c1 [Isoquinoline] | > 90 µM
44 | COC(C)(C)CCCC(C)C/C=C/C(C)=C/C(=O)OC(C)C (stereo not drawn) [Methoprene] | > 90 µM
45 | C1CN2CCN1CC2 [1,4-Diazabicyclo[2.2.2]octane] | > 100 µM
46 | CN(CCOc1ccc(CC2SC(=O)NC2=O)cc1)c1ccccn1 (stereo not drawn) [Rosiglitazone maleate] | > 90 µM
47 | Clc1ccc(C(Cn2ccnc2)OCc2ccsc2Cl)c(Cl)c1 (stereo not drawn) [Tioconazole] | 14.7 µM
48 | CCCCCCc1ccc(-c2ccc(C#N)cc2)cc1 [4-Hexyl-4'-cyanobiphenyl] | > 90 µM
49 | CCCCCCCCCCCCCCCCCCCl [Octadecyl chloride] | > 5 µM
50 | CCN(CC)CCOC(=O)c1ccc(N)cc1Cl [Chloroprocaine hydrochloride] | > 50 µM
51 | O=C(O)c1cc(Br)c(O)c(Br)c1 [3,5-Dibromo-4-hydroxybenzoic acid] | > 90 µM
52 | Cc1ccc(NC(N)=O)cc1 [p-Tolylurea] | > 90 µM
53 | Nc1ccc(Br)cc1 [4-Bromoaniline] | > 90 µM
54 | O=C1c2ccccc2S(=O)(=O)N1CCCCN1CCN(c2ncccn2)CC1 [Ipsapirone] | > 50 µM
55 | Cc1ccc(Nc2c(F)cccc2Cl)c(CC(=O)O)c1 [Lumiracoxib] | > 50 µM
56 | O=S(O)CO [Hydroxymethanesulfinic acid monosodium salt dihydrate] | > 50 µM
57 | [O-][n+]1ccc(Cl)cc1 [4-Chloropyridine 1-oxide] | > 100 µM
58 | COc1ccc2c3c1O[C@H]1C[C@@H](O)C=C[C@@]31CCN(C)C2 [Galanthamine] | > 50 µM
59 | Sc1nc2ccccc2s1 [2-Mercaptobenzothiazole] | > 50 µM
60 | O=C(Cl)c1cc(C(=O)Cl)cc(C(=O)Cl)c1 [1,3,5-Benzenetricarbonyl trichloride] | 80 µM
61 | Cn1cnc2ncnc(N)c21 [7-Methyladenine] | > 50 µM
62 | CN(C)CCc1ccc(O)cc1 [Hordenine] | > 50 µM

Same assay, conditions: rat, gh3-tre-luc cells, AC50 (uM) modified / 1000, Tox21_110001=Tox21_111074; viability, 1 nM T3 present, 24 h

Row | SMILES | CC50 at 24 h
63 | CC(C)CCON=O [3-Methylbutyl nitrite] | > 50 µM

Same assay, conditions: rat, gh3-tre-luc cells, AC50 (uM) modified / 1000, Tox21_110001=Tox21_200327; viability, 1 nM T3 present, 24 h

Row | SMILES | CC50 at 24 h
64 | Brc1ccc(Oc2ccc(Br)cc2Br)c(Br)c1 [2,2'4,4'-Tetrabromodiphenyl ether] | 83.3 µM

Same assay, conditions: rat, gh3-tre-luc cells, AC50 (uM) modified / 1000, Tox21_110001=Tox21_200382; viability, 1 nM T3 present, 24 h

Row | SMILES | CC50 at 24 h
65 | ClCC(Br)CBr (stereo not drawn) [1,2-Dibromo-3-chloropropane] | > 90 µM

Same assay, conditions: rat, gh3-tre-luc cells, AC50 (uM) modified / 1000, Tox21_110001=Tox21_200894; viability, 1 nM T3 present, 24 h

Row | SMILES | CC50 at 24 h
66 | O=C(O)C(Cl)Br (stereo not drawn) [Bromochloroacetic acid] | > 90 µM

Same assay, conditions: rat, gh3-tre-luc cells, AC50 (uM) modified / 1000, Tox21_110001=Tox21_200983; viability, 1 nM T3 present, 24 h

Row | SMILES | CC50 at 24 h
67 | CC(C)CCON=O [3-Methylbutyl nitrite] | > 90 µM

Same assay, conditions: rat, gh3-tre-luc cells, AC50 (uM) modified / 1000, Tox21_110001=Tox21_300792; viability, 1 nM T3 present, 24 h

Row | SMILES | CC50 at 24 h
68 | COC(=O)Cc1ccccc1 [Methyl phenylacetate] | > 90 µM

Same assay, conditions: rat, gh3-tre-luc cells, AC50 (uM) modified / 1000, Tox21_110001=Tox21_400021; viability, 1 nM T3 present, 24 h

Row | SMILES | CC50 at 24 h
69 | Nc1c(Cl)c(Cl)c(Cl)c(Cl)c1Cl [Pentachloroaniline] | > 90 µM
